Measurements: paper PMC7157554, “Anti-Trypanosomal Proteasome Inhibitors Cure Hemolymphatic and Meningoencephalic Murine Infection Models of African Trypanosomiasis” (Tropical Medicine and Infectious Disease, 2020)
Read-outs that look alike come from different tables or passages of the source.

Tests used:
[1] = test system: HepG2 (human hepatocellular carcinoma) cells; test: HepG2 cytotoxicity assay (CCK-8, 96 h); format: cell-based; conditions: mean ± SEM
Procedure: The HepG2 (human hepatocellular carcinoma) cells were obtained from ATCC (American Type Culture Collection) and grown in RPMI media. Cytotoxicity assay was performed in 384-well format, and 25 µL, approximately 1.6 × 10^4 cells/mL, suspension was added to clear-bottom 384-well Griener plates and incubated in 5% CO2 incubator, at 37 °C for 24 h. Once the cells adhered, 125 nL of threefold serially diluted compounds in DMSO was added. Plates were incubated for 96 h, at 37 °C, in a 5% CO2 incubator. Plates were read for viability by adding 10 µL of CCK-8 reagent (APExBIO) into each well, followed by 3 h incubation and absorbance reading at […], using an Envision plate reader. […] Puromycin was used as a positive control. All experiments had two technical replicates and three biological replicates. Appropriate statistical tests were used for evaluating significance, and mean ± SEM is represented in the tables.

[2] = test system: T. b. brucei; test: Growth inhibition of T. b. brucei strains BS221, BS221 (P2 KO), STIB950; format: cell-based; conditions: Trypanosoma brucei, mean ± SD, read-out: T. b. brucei EC50
Procedure: (§1) The T. b. brucei strain Lister 427 (bloodstream form) parasites were continuously grown in complete HMI-9 medium supplemented with 10% Serum Plus and 10% heat-inactivated fetal bovine serum (FBS). All other parasite strains were cultured as described elsewhere.
For determination of 50% growth inhibition, all compounds were dissolved in DMSO, and 200 nL of threefold serially diluted compounds were added into solid-bottom 384-well white plates (Greiner Bio-One, Kremsmunster, Austria) by an Echo 555 acoustic liquid-handling system. Forty microliters of 10^4 cells/mL of T. b. brucei parasites was added into each well, and the plates were incubated in a 5% CO2 incubator at 37 °C for 48 h. Viability of parasites were determined by measuring intracellular ATP levels, using CellTiter-Glo (CTG) luminescent cell viability reagent (Promega, Madison, Wisconsin WI, USA). The EC50 values were determined by using GraphPad Prism software. Growth inhibition assays for all clinical isolates were carried out as described earlier. All experiments had two technical replicates and three biological replicates. […]

[3] = test system: T. b. brucei strain Lister 427 (bloodstream form); test: T. b. brucei growth inhibition assay (CellTiter-Glo, 48 h); format: cell-based, Trypanosoma brucei brucei
Procedure: as §1
For determination of 50% growth inhibition, all compounds were dissolved in DMSO, and 200 nL of threefold serially diluted compounds were added into solid-bottom 384-well white plates (Greiner Bio-One, Kremsmunster, Austria) by an Echo 555 acoustic liquid-handling system. Forty microliters of 10^4 cells/mL of T. b. brucei parasites was added into each well, and the plates were incubated in a 5% CO2 incubator at 37 °C for 48 h. Viability of parasites were determined by measuring intracellular ATP levels, using CellTiter-Glo (CTG) luminescent cell viability reagent (Promega, Madison, Wisconsin WI, USA). The EC50 values were determined by using GraphPad Prism software. Growth inhibition assays for all clinical isolates were carried out as described earlier. All experiments had two technical replicates and three biological replicates. Appropriate statistical tests were used for evaluating significance, and mean ± SEM is represented in the tables.

| Compound | HepG2 CC50 [1] | EC50 ([2]; STIB950, strain STIB950) | EC50 ([2]; strain BS221 (P2 KO)) | EC50 ([2]; strain BS221) | EC50 ([3]; Lister 427 bloodstream form, mean ± SEM, read-out: T. b. brucei EC50) | EC50 ([3]; Trypanosoma brucei, read-out: T. b. brucei EC50, Lister 427 bloodstream form, 48 h, mean ± SEM) |
| --- | --- | --- | --- | --- | --- | --- |
| Cc1nc(C)c(C(=O)Nc2ccc(F)c(-c3nc4ncc(-c5ccccc5)cn4n3)c2)o1 [GNF3849] | cytotoxic | 0.9 ± 0.2 nM | 4 ± 2.5 nM | 1.9 ± 0.8 nM | – | – |
| Cc1nc(C)c(C(=O)Nc2ccc(F)c(-c3nc4ncc(-c5ccccn5)cn4n3)c2)o1 [GNF6702] | – | 1.2 ± 0.5 nM | 3.5 ± 1.2 nM | 0.9 ± 0.3 nM | 70 ± 3 nM | < 70 nM |
